Laboratory results published in publication PMC5699024 (Proceedings of the National Academy of Sciences of the …, 2017).
Entries after “also recorded” stand apart in the source; their conditions may differ.

Legend:
AND T cells [1] = assay: ICAM-YFP distribution and T cell contact with supported membrane; format: cell-based, mouse; conditions: 1 h pretreatment
AND T cells [2] = assay: ZAP70-EGFP recruitment and cell morphology; format: cell-based, mouse; conditions: for ZAP70 recruitment to plasma membrane / cell morphology: T102S/MHC well below, MCC/MHC above NFAT threshold; for linear ZAP70-EGFP trajectories: ∼5-min window, TIRF
5c.c7 TCR = assay: single-molecule pMHC:TCR dwell time in live T cells; format: binding, mouse; conditions: almost four orders of magnitude of pMHC density
CD28 [3] = conditions: CD80:CD28 solution affinity, comparable with pMHC:TCR; ref [25], [32]–[34]; cited from earlier work
CD28 [4] = biological target: T1, CD28 (Mus musculus, UniProt P31041); assay: single-molecule CD80:CD28 binding in AND T cells; conditions: 3-s time lapse, ∼10 cells, one experiment
T1 sequence (P31041 20-218): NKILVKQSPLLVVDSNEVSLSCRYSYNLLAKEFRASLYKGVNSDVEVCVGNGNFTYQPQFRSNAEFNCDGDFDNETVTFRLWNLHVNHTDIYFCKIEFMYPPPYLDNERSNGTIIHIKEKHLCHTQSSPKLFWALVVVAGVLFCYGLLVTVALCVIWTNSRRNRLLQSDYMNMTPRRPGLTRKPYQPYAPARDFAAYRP

AND T cells [5] = assay: NFAT translocation assay; format: cell-based, mouse; conditions: MCC/MHC:AND; unlabeled CD80 on bilayer (200 molecules per micrometer)

Compound	ZAP70 recruitment to plasma membrane (AND T cells [2])	cell morphology (AND T cells [2])	linear ZAP70-EGFP trajectories (AND T cells [2])	also measured
COC(=O)[C@H](CC(C)C)NC(=O)c1ccc(NC[C@@H](N)CS)cc1-c1cccc2ccccc12 [GGTI-298]	–	–	–	ICAM-YFP distribution (AND T cells [1]): relatively even ICAM-YFP distribution across the T cell; probability of T cell landing on supported membrane (AND T cells [1]): decreased the probability of the T cell’s landing on the supported membrane
ANERADLIAYLKQASK [T102S]	low levels	asymmetric, crawling morphology	asymmetric	–
ANERADLIAYLKQATK [MCC, moth cytochrome c (amino acids 88–103)]	enhanced ZAP70 recruitment	stationary, centrosymmetric cell morphology	centrosymmetric	〈τoff〉 over pMHC density titration (5c.c7 TCR): remains constant
CD80: decahistidine-tagged CD80 protein expressed in High Five cells; costimulatory ligand of CD28	–	–	–	solution affinity (CD28 [3]): low micromolar range; CD80:CD28 〈τoff〉 versus pMHC density (CD28 [4]): constant as a function of pMHC density; also recorded: constant with respect to pMHC density; effect of CD80 on NFAT threshold density, MCC (AND T cells [5]): lowers the NFAT threshold density
